Data set [1] is described as follows: Solubility in PBS pH 7.4 by HPLC-UV. The settings on record: PBS buffer, aqueous buffer, kinetic from dmso stock; PBS pH 7.4, about 2% DMSO, 120 minutes at room temperature. In kind it is physicochemical. As to the method:
Methods and Procedure: This study was designed in compliance with previously described procedures to assure data integrity and adherence to GLP principles. Control compounds included ibuprofen as a reference for high solubility and progesterone as a reference for low solubility. Stock solutions of compounds described herein (20 mM) were prepared in DMSO, on the same day of the experiment when feasible.
These solutions were compared with an external standard solution of known concentration via HPLC-UV To prepare the standard, 4 μL from a 20 mM compound stock solution was added to DMSO in a vial/well, and mixed with shaking at room temperature for 10 minutes. […]
Concentrations were determined by comparing UV absorbance of the test solution and of the known standard solution following HPLC separation using a generic fast gradient method employing a DAD detector and UV detection at 230 and 254 nm. […] The solubility of each compound was expressed as the ratio of compound amount in the sample test solution to the amount of compound in the standard solution, calculated from the equation “solubility of sample=peak area of sample/peak area of standard×concentration of standard.”

For data set [2], the target named is T1, CYP2D6 (Homo sapiens, UniProt P10635).
T1 construct: host or cells: recombinant microsomes
T1 sequence (P10635 whole entry): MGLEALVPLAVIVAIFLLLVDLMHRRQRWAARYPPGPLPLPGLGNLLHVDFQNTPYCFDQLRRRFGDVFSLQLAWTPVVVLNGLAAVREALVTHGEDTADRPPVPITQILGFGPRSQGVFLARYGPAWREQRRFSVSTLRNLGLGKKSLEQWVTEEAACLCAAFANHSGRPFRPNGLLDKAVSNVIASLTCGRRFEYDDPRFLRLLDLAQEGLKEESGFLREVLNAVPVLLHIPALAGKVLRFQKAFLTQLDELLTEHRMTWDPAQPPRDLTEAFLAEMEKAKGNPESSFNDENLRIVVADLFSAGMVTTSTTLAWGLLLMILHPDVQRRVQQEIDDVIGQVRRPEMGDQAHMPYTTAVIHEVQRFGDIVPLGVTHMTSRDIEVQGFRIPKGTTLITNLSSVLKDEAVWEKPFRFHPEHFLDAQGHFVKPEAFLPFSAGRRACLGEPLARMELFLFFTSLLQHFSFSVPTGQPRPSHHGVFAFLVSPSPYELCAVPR
Put plainly: CYP450 inhibition, fluorescent probe, recombinant microsomes: CYP2D6. In kind it is in vitro ADME. How it is done: Methods and Procedure: The study was performed in agreement with previously described procedures to assure data integrity and adherence to GLP standards. Briefly, recombinant human CYP450 isoenzymes were used to metabolize pro-fluorescent probe substrates to fluorescent products. IC50 values determined from the effect of test compounds on the metabolism of these probe substrates were then used to determine inhibitory potency against CYP450 isoforms.
The test system was based on a three-step procedure with a “mix and read” format, where PGP-432,TI reaction and reading were performed at 37° C. […] Fluorescence was measured in kinetic mode (1 read/minutes for 10 minutes), and the fluorescence rate was calculated. […]
Microsomes were added to the buffer prior to the substrate addition. […] For fluorescence measurement, 10 μL/well of the test compounds were transferred from the compound plate to the assay plate using Biomek FX and the appropriate protocol. […]
10 μL/well of the cofactor was then added to the assay plate using the Multidrop before placing the assay plate in the plate reader EnVision to measure fluorescence. […]
Next, 10 μL/well from the compound plate was added and incubated for 10 minutes at 37° C. on a plate shaker, while a mixture of Vivid Substrate and Vivid NADP+ in Vivid CYP450 Reaction Buffer was prepared. […] Regarding data analysis, the inhibition effect is expressed as a percentage. […]

The structures appear in SMILES notation. In brackets after ≈: the same amount, converted by molar mass. Like-named read-outs stand apart in the source and are kept apart here.

The term solubility denotes the concentration that dissolves in the medium under given conditions. A lower solubility goes with little dissolved substance. What is called IC50 is the concentration needed to halve the response being measured. `Clc1ccc(C23CNC(CO2)C3)cc1Cl` (stereo not shown) [522A, 1-(3,4-dichlorophenyl)-2-oxa-5-azabicyclo[2.2.1]heptane] displayed a solubility at 120 min in data set [1] of 384 µM (≈ 93.6 µg/mL). In addition, in data set [2] (recombinant human CYP2D6, read-out: CYP450 Inhibition (IC50), CYP2D6), the IC50 was 2870 nM.
Turning to `CNC(C)Cc1ccc2c(c1)OCO2` (stereo not shown) [MDMA, reference compound], the solubility at 120 min in data set [1] was 386 µM (≈ 74.6 µg/mL). Besides, the IC50 in data set [2] was determined as 1600 nM.

For the origin of these results see patent publication US12595269B2, “Morpholine-like monoamine releasers” (Solvonis Therapeutics Ireland Holdings Limited, priority 2022, dated 2026).
